Measured values published in ChEMBL document CHEMBL3390848, “Affinity selection and sequence-activity relationships of HIV-1 membrane fusion inhibitors directed at the drug-resistant variants” (Medchemcomm, 2010).
pEC50: −log10 of the molar value. Residues, ends and D or L forms follow the SMILES beside them.

What was measured:
[1] = test system: Human immunodeficiency virus 1; experiment: Binding affinity to HIV1 His-tagged N-terminal heptad repeat of envelope glycoprotein gp41 assessed as recovery of N36-drug complex after 2 hrs by LC-MS analysis; design: concentration or dose not given beside the values
[2] = test system: Human immunodeficiency virus 1; experiment: Antiviral activity against HIV1 NL4-3 harboring gp41 D36G mutant infected in human HeLa cells expressing CD4-LTR-beta-gal assessed as inhibition of viral replication after 48 hrs by MAGI assay; assay type: functional, organism-based
[3] = test system: Human immunodeficiency virus 1; experiment: Thermal stability of HIV1 envelope glycoprotein gp41 His-tagged N-terminal heptad repeat N36-drug complex assessed as thermal unfolding transition state by measuring molar ellipticity at 4 to 90 degC by circular dichroic spectra analysis

Structure (SMILES) | Activity [1] [%] | pEC50 [2] | Tm [3] [°C]
CC[C@H](C)[C@H](NC(=O)[C@H](CC(C)C)NC(=O)[C@H](CCC(=O)O)NC(=O)[C@H](CCC(=O)O)NC(=O)[C@@H](NC(=O)[C@H](CCCCN)NC(=O)[C@H](CCCCN)NC(=O)[C@@H](NC(=O)[C@H](Cc1ccc(O)cc1)NC(=O)[C@H](CCC(=O)O)NC(=O)[C@H](CCC(=O)O)NC(=O)[C@@H](NC(=O)[C@H](CCCCN)NC(=O)[C@H](CCCCN)NC(=O)[C@H](CC(=O)O)NC(=O)[C@H](Cc1c[nH]c2ccccc12)NC(=O)[C@H](CCC(=O)O)NC(=O)[C@H](CCC(=O)O)NC(=O)[C@H](Cc1c[nH]c2ccccc12)NC(C)=O)[C@@H](C)CC)[C@@H](C)O)[C@@H](C)CC)C(=O)N[C@@H](CCCCN)C(=O)N[C@@H](CCCCN)C(=O)N[C@@H](CO)C(=O)N[C@@H](CCC(=O)O)C(=O)N[C@@H](CCC(=O)O)C(=O)N[C@@H](Cc1c[nH]c2ccccc12)C(=O)N[C@@H](CCC(N)=O)C(=O)N[C@@H](CCCCN)C(=O)N[C@@H](CCCCN)C(=O)N[C@@H](CC(N)=O)C(=O)N[C@@H](CCC(=O)O)C(=O)N[C@@H](CCC(=O)O)C(=O)N[C@@H](CCC(=O)O)C(=O)N[C@@H](CC(C)C)C(=O)N[C@@H](CCCCN)C(=O)N[C@@H](CCCCN)C(N)=O (Ac-WEEWDKKIEEYTKKIEELIKKSEEWQKKNEEELKK-NH2) | 7.1 | 8.77 | 77.1
CC[C@H](C)[C@H](NC(=O)[C@H](CC(C)C)NC(=O)[C@H](CCC(=O)O)NC(=O)[C@H](CCC(=O)O)NC(=O)[C@@H](NC(=O)[C@H](CCCCN)NC(=O)[C@H](CCCCN)NC(=O)[C@@H](NC(=O)[C@H](Cc1ccc(O)cc1)NC(=O)[C@H](CCC(=O)O)NC(=O)[C@H](CCC(=O)O)NC(=O)[C@@H](NC(=O)[C@H](CCCCN)NC(=O)[C@H](CCCCN)NC(=O)[C@H](CC(=O)O)NC(=O)[C@H](Cc1c[nH]c2ccccc12)NC(=O)[C@H](CCC(=O)O)NC(=O)[C@H](CCC(=O)O)NC(=O)[C@H](Cc1c[nH]c2ccccc12)NC(C)=O)[C@@H](C)CC)[C@@H](C)O)[C@@H](C)CC)C(=O)N[C@@H](CCCCN)C(=O)N[C@@H](CCCCN)C(=O)N[C@@H](CO)C(=O)N[C@@H](CCC(=O)O)C(=O)N[C@@H](CCC(=O)O)C(=O)N[C@@H](CCCCN)C(=O)N[C@@H](CCC(N)=O)C(=O)N[C@@H](CCCCN)C(=O)N[C@@H](CCCCN)C(=O)N[C@@H](CC(N)=O)C(=O)N[C@@H](CCC(=O)O)C(=O)N[C@@H](CCC(=O)O)C(=O)N[C@@H](CCC(=O)O)C(=O)N[C@@H](CC(C)C)C(=O)N[C@@H](CCCCN)C(=O)N[C@@H](CCCCN)C(N)=O (Ac-WEEWDKKIEEYTKKIEELIKKSEEKQKKNEEELKK-NH2) | 4.8 | 8.57 | 69.2
CC[C@H](C)[C@H](NC(=O)[C@H](CC(C)C)NC(=O)[C@H](CCC(=O)O)NC(=O)[C@H](CCC(=O)O)NC(=O)[C@@H](NC(=O)[C@H](CCCCN)NC(=O)[C@H](CCCCN)NC(=O)[C@@H](NC(=O)[C@H](Cc1ccc(O)cc1)NC(=O)[C@H](CCC(=O)O)NC(=O)[C@H](CCC(=O)O)NC(=O)[C@@H](NC(=O)[C@H](CCCCN)NC(=O)[C@H](CCCCN)NC(=O)[C@H](CC(=O)O)NC(=O)[C@H](Cc1c[nH]c2ccccc12)NC(=O)[C@H](CCC(=O)O)NC(=O)[C@H](CCC(=O)O)NC(=O)[C@H](Cc1c[nH]c2ccccc12)NC(C)=O)[C@@H](C)CC)[C@@H](C)O)[C@@H](C)CC)C(=O)N[C@@H](CCCCN)C(=O)N[C@@H](CCCCN)C(=O)N[C@@H](CO)C(=O)N[C@@H](CCC(=O)O)C(=O)N[C@@H](CCC(=O)O)C(=O)N[C@@H](CCC(=O)O)C(=O)N[C@@H](CCC(N)=O)C(=O)N[C@@H](CCCCN)C(=O)N[C@@H](CCCCN)C(=O)N[C@@H](CC(N)=O)C(=O)N[C@@H](CCC(=O)O)C(=O)N[C@@H](CCC(=O)O)C(=O)N[C@@H](CCC(=O)O)C(=O)N[C@@H](CC(C)C)C(=O)N[C@@H](CCCCN)C(=O)N[C@@H](CCCCN)C(N)=O (Ac-WEEWDKKIEEYTKKIEELIKKSEEEQKKNEEELKK-NH2) | 4.3 | 8.62 | 76.2
CC[C@H](C)[C@H](NC(=O)[C@H](CC(C)C)NC(=O)[C@H](CCC(=O)O)NC(=O)[C@H](CCC(=O)O)NC(=O)[C@@H](NC(=O)[C@H](CCCCN)NC(=O)[C@H](CCCCN)NC(=O)[C@@H](NC(=O)[C@H](Cc1ccc(O)cc1)NC(=O)[C@H](CCC(=O)O)NC(=O)[C@H](CCC(=O)O)NC(=O)[C@@H](NC(=O)[C@H](CCCCN)NC(=O)[C@H](CCCCN)NC(=O)[C@H](CC(=O)O)NC(=O)[C@H](Cc1c[nH]c2ccccc12)NC(=O)[C@H](CCC(=O)O)NC(=O)[C@H](CCC(=O)O)NC(=O)[C@H](Cc1c[nH]c2ccccc12)NC(C)=O)[C@@H](C)CC)[C@@H](C)O)[C@@H](C)CC)C(=O)N[C@@H](CCCCN)C(=O)N[C@@H](CCCCN)C(=O)N[C@@H](CO)C(=O)N[C@@H](CCC(=O)O)C(=O)N[C@@H](CCC(=O)O)C(=O)N[C@@H](Cc1ccc(O)cc1)C(=O)N[C@@H](CCC(N)=O)C(=O)N[C@@H](CCCCN)C(=O)N[C@@H](CCCCN)C(=O)N[C@@H](CC(N)=O)C(=O)N[C@@H](CCC(=O)O)C(=O)N[C@@H](CCC(=O)O)C(=O)N[C@@H](CCC(=O)O)C(=O)N[C@@H](CC(C)C)C(=O)N[C@@H](CCCCN)C(=O)N[C@@H](CCCCN)C(N)=O (Ac-WEEWDKKIEEYTKKIEELIKKSEEYQKKNEEELKK-NH2) | 5.5 | 8.66 | 76.3
CC[C@H](C)[C@H](NC(=O)[C@H](CC(C)C)NC(=O)[C@H](CCC(=O)O)NC(=O)[C@H](CCC(=O)O)NC(=O)[C@@H](NC(=O)[C@H](CCCCN)NC(=O)[C@H](CCCCN)NC(=O)[C@@H](NC(=O)[C@H](Cc1ccc(O)cc1)NC(=O)[C@H](CCC(=O)O)NC(=O)[C@H](CCC(=O)O)NC(=O)[C@@H](NC(=O)[C@H](CCCCN)NC(=O)[C@H](CCCCN)NC(=O)[C@H](CC(=O)O)NC(=O)[C@H](Cc1c[nH]c2ccccc12)NC(=O)[C@H](CCC(=O)O)NC(=O)[C@H](CCC(=O)O)NC(=O)[C@H](Cc1c[nH]c2ccccc12)NC(C)=O)[C@@H](C)CC)[C@@H](C)O)[C@@H](C)CC)C(=O)N[C@@H](CCCCN)C(=O)N[C@@H](CCCCN)C(=O)N[C@@H](CO)C(=O)N[C@@H](CCC(=O)O)C(=O)N[C@@H](CCC(=O)O)C(=O)N[C@@H](CC(N)=O)C(=O)N[C@@H](CCC(N)=O)C(=O)N[C@@H](CCCCN)C(=O)N[C@@H](CCCCN)C(=O)N[C@@H](CC(N)=O)C(=O)N[C@@H](CCC(=O)O)C(=O)N[C@@H](CCC(=O)O)C(=O)N[C@@H](CCC(=O)O)C(=O)N[C@@H](CC(C)C)C(=O)N[C@@H](CCCCN)C(=O)N[C@@H](CCCCN)C(N)=O (Ac-WEEWDKKIEEYTKKIEELIKKSEENQKKNEEELKK-NH2) | 4 | 8.60 | 73.4
CC[C@H](C)[C@H](NC(=O)[C@H](CC(C)C)NC(=O)[C@H](CCC(=O)O)NC(=O)[C@H](CCC(=O)O)NC(=O)[C@@H](NC(=O)[C@H](CCCCN)NC(=O)[C@H](CCCCN)NC(=O)[C@@H](NC(=O)[C@H](Cc1ccc(O)cc1)NC(=O)[C@H](CCC(=O)O)NC(=O)[C@H](CCC(=O)O)NC(=O)[C@@H](NC(=O)[C@H](CCCCN)NC(=O)[C@H](CCCCN)NC(=O)[C@H](CC(=O)O)NC(=O)[C@H](Cc1c[nH]c2ccccc12)NC(=O)[C@H](CCC(=O)O)NC(=O)[C@H](CCC(=O)O)NC(=O)[C@H](Cc1c[nH]c2ccccc12)NC(C)=O)[C@@H](C)CC)[C@@H](C)O)[C@@H](C)CC)C(=O)N[C@@H](CCCCN)C(=O)N[C@@H](CCCCN)C(=O)N[C@@H](CO)C(=O)N[C@@H](CCC(=O)O)C(=O)N[C@@H](CCC(=O)O)C(=O)N[C@@H](CCSC)C(=O)N[C@@H](CCC(N)=O)C(=O)N[C@@H](CCCCN)C(=O)N[C@@H](CCCCN)C(=O)N[C@@H](CC(N)=O)C(=O)N[C@@H](CCC(=O)O)C(=O)N[C@@H](CCC(=O)O)C(=O)N[C@@H](CCC(=O)O)C(=O)N[C@@H](CC(C)C)C(=O)N[C@@H](CCCCN)C(=O)N[C@@H](CCCCN)C(N)=O (Ac-WEEWDKKIEEYTKKIEELIKKSEEMQKKNEEELKK-NH2) | 6 | 8.70 | 80.2
CC[C@H](C)[C@H](NC(=O)[C@H](CC(C)C)NC(=O)[C@H](CCC(=O)O)NC(=O)[C@H](CCC(=O)O)NC(=O)[C@@H](NC(=O)[C@H](CCCCN)NC(=O)[C@H](CCCCN)NC(=O)[C@@H](NC(=O)[C@H](Cc1ccc(O)cc1)NC(=O)[C@H](CCC(=O)O)NC(=O)[C@H](CCC(=O)O)NC(=O)[C@@H](NC(=O)[C@H](CCCCN)NC(=O)[C@H](CCCCN)NC(=O)[C@H](CC(=O)O)NC(=O)[C@H](Cc1c[nH]c2ccccc12)NC(=O)[C@H](CCC(=O)O)NC(=O)[C@H](CCC(=O)O)NC(=O)[C@H](Cc1c[nH]c2ccccc12)NC(C)=O)[C@@H](C)CC)[C@@H](C)O)[C@@H](C)CC)C(=O)N[C@@H](CCCCN)C(=O)N[C@@H](CCCCN)C(=O)N[C@@H](CO)C(=O)N[C@@H](CCC(=O)O)C(=O)N[C@@H](CCC(=O)O)C(=O)N[C@@H](C)C(=O)N[C@@H](CCC(N)=O)C(=O)N[C@@H](CCCCN)C(=O)N[C@@H](CCCCN)C(=O)N[C@@H](CC(N)=O)C(=O)N[C@@H](CCC(=O)O)C(=O)N[C@@H](CCC(=O)O)C(=O)N[C@@H](CCC(=O)O)C(=O)N[C@@H](CC(C)C)C(=O)N[C@@H](CCCCN)C(=O)N[C@@H](CCCCN)C(N)=O (Ac-WEEWDKKIEEYTKKIEELIKKSEEAQKKNEEELKK-NH2) | 6.6 | 8.80 | 76.1
